Data taken from the supplement of paper PMC8617591.

What was measured:
[1] = system: Mycobacterium tuberculosis Erdman (autoluminescent); assay: total FIC90 (Loewe) at 90% inhibition, three-drug combination (log2); higher = more antagonistic
Method: (§1)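 DiaMOND equipotent three-drug combination dose responses (10 doses, 1.5- or 2-fold spacing, centred on IC90) against autoluminescent M. tuberculosis Erdman in 8 in vitro models. Read-out is OD600, or luminescence for the intracellular and dormancy models, normalised to untreated wells. Hill-fit Einf, AUC25 and GRinf are potency metrics; FIC50 and FIC90 are total Loewe fractional inhibitory concentrations as log2 (negative = synergy).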

[2] = system: Mycobacterium tuberculosis Erdman (autoluminescent); assay: Einf, fitted maximum growth inhibition of three-drug combination (fraction); higher = stronger maximal inhibition
Method: as §1

[3] = system: Mycobacterium tuberculosis Erdman (autoluminescent); assay: total FIC50 (Loewe) at 50% inhibition, three-drug combination (log2); higher = more antagonistic
Method: as §1

[4] = system: Mycobacterium tuberculosis Erdman (autoluminescent); assay: GRinf, maximum normalised growth rate inhibition (three-drug combination) (unitless (-1 to 1)); higher = less effect (negative = killing)
Method: as §1

[5] = system: Mycobacterium tuberculosis Erdman (autoluminescent); assay: AUC25, normalised area under dose response up to IC25 (three-drug combination) (fraction (0-1)); higher = more potent at low dose
Method: as §1

CC[C@@H](CO)NCCN[C@@H](CC)CO [ethambutol] + CC(=O)NC[C@H]1CN(c2ccc(N3CCOCC3)c(F)c2)C(=O)O1 [linezolid] + COc1c(N2C[C@@H]3CCCN[C@@H]3C2)c(F)cc2c(=O)c(C(=O)O)cn(C3CC3)c12 [moxifloxacin]
Conditions | AUC25, [5] | Einf, [2] | GRinf, [4] | total FIC50, [3] | total FIC90, [1]
in vitro model: acidic pH 5.7, time point: constant (~7 days, model-specific) | 0.121 | 0.782 | -0.587 | 0.0272 | –
in vitro model: acidic pH 5.7, time point: terminal (~4-5 doublings, model-specific) | 0.101 | 0.956 | -0.36 | 1.25 | 0.487
in vitro model: intracellular J774, time point: constant = terminal | – | 0.966 | -0.388 | – | -0.395

Conditions | AUC25, [5] | Einf, [2] | GRinf, [4] | total FIC50, [3] | total FIC90, [1]
in vitro model: butyrate, time point: constant (~7 days, model-specific) | 0.0929 | 0.887 | 0.105 | 0.436 | –
in vitro model: butyrate, time point: terminal (~4-5 doublings, model-specific) | 0.0678 | 0.938 | 0.104 | 0.501 | 0.397
in vitro model: cholesterol 0.05 mM, time point: constant (~7 days, model-specific) | 0.149 | 0.725 | -0.165 | -0.0271 | –
in vitro model: cholesterol 0.05 mM, time point: terminal (~4-5 doublings, model-specific) | 0.162 | 0.932 | -0.548 | 7.63 | –
in vitro model: cholesterol-high 0.2 mM, time point: constant (~7 days, model-specific) | 0.111 | 0.942 | -0.318 | 0.596 | –
in vitro model: cholesterol-high 0.2 mM, time point: terminal (~4-5 doublings, model-specific) | 0.109 | 1 | -0.97 | 0.421 | 1
in vitro model: dormancy (butyrate + nitrate, low O2), time point: constant (~7 days, model-specific) | 0.0953 | 0.849 | 0.414 | 0.25 | –
in vitro model: dormancy (butyrate + nitrate, low O2), time point: terminal (~4-5 doublings, model-specific) | 0.0816 | 0.967 | -0.0859 | -0.563 | 0.576
in vitro model: standard 7H9 glycerol, time point: constant = terminal | 0.0554 | 0.958 | -0.3 | 0.808 | 0.685
in vitro model: valerate, time point: constant (~7 days, model-specific) | 0.0828 | 0.872 | 0.0258 | 0.39 | –
in vitro model: valerate, time point: terminal (~4-5 doublings, model-specific) | 0.0583 | 0.938 | -0.0184 | 0.654 | 0.845

CC[C@@H](CO)NCCN[C@@H](CC)CO [ethambutol] + CC(=O)NC[C@H]1CN(c2ccc(N3CCOCC3)c(F)c2)C(=O)O1 [linezolid] + NC(=O)c1cnccn1 [pyrazinamide]
Conditions | AUC25, [5] | Einf, [2] | GRinf, [4] | total FIC50, [3] | total FIC90, [1]
in vitro model: acidic pH 5.7, time point: constant (~7 days, model-specific) | 0.087 | 0.835 | -0.314 | 0.0711 | –
in vitro model: acidic pH 5.7, time point: terminal (~4-5 doublings, model-specific) | 0.0645 | 0.963 | -0.245 | 1.01 | -1.27
in vitro model: intracellular J774, time point: constant = terminal | – | 0.966 | -0.526 | – | 0.433

Conditions | AUC25, [5] | Einf, [2] | GRinf, [4] | total FIC50, [3] | total FIC90, [1]
in vitro model: butyrate, time point: constant (~7 days, model-specific) | 0.114 | 0.891 | 0.0745 | 0.217 | –
in vitro model: butyrate, time point: terminal (~4-5 doublings, model-specific) | 0.0865 | 0.932 | 0.0716 | 0.189 | 0.638
in vitro model: cholesterol 0.05 mM, time point: constant (~7 days, model-specific) | 0.16 | 0.785 | -0.0274 | – | –
in vitro model: cholesterol 0.05 mM, time point: terminal (~4-5 doublings, model-specific) | 0.168 | 0.977 | -0.696 | -1.33 | –
in vitro model: cholesterol-high 0.2 mM, time point: constant (~7 days, model-specific) | 0.101 | 0.944 | -0.667 | 0.563 | –
in vitro model: cholesterol-high 0.2 mM, time point: terminal (~4-5 doublings, model-specific) | 0.11 | 1 | -0.959 | 0.303 | 0.985
in vitro model: dormancy (butyrate + nitrate, low O2), time point: constant (~7 days, model-specific) | 0.107 | 0.75 | 0.388 | 0.819 | –
in vitro model: dormancy (butyrate + nitrate, low O2), time point: terminal (~4-5 doublings, model-specific) | 0.102 | 0.964 | 0.0543 | 0.154 | 0.627
in vitro model: standard 7H9 glycerol, time point: constant = terminal | 0.071 | 0.86 | 0.221 | 1.2 | –
in vitro model: valerate, time point: constant (~7 days, model-specific) | 0.0934 | 0.864 | 0.000637 | 0.255 | –
in vitro model: valerate, time point: terminal (~4-5 doublings, model-specific) | 0.0462 | 0.909 | 0.102 | 0.697 | –

CC[C@@H](CO)NCCN[C@@H](CC)CO [ethambutol] + CC(=O)NC[C@H]1CN(c2ccc(N3CCOCC3)c(F)c2)C(=O)O1 [linezolid] + O=[N+]([O-])c1cn2c(n1)OC[C@@H](OCc1ccc(OC(F)(F)F)cc1)C2 [pretomanid]
Conditions | AUC25, [5] | Einf, [2] | GRinf, [4] | total FIC50, [3] | total FIC90, [1]
in vitro model: acidic pH 5.7, time point: constant (~7 days, model-specific) | 0.134 | 0.896 | -0.388 | 0.236 | –
in vitro model: acidic pH 5.7, time point: terminal (~4-5 doublings, model-specific) | 0.0878 | 0.967 | -0.322 | 1.28 | 1.01
in vitro model: intracellular J774, time point: constant = terminal | – | 0.975 | -0.561 | – | 0.0435

Conditions | AUC25, [5] | Einf, [2] | GRinf, [4] | total FIC50, [3] | total FIC90, [1]
in vitro model: butyrate, time point: constant (~7 days, model-specific) | 0.0842 | 0.911 | 0.0181 | 0.478 | –
in vitro model: butyrate, time point: terminal (~4-5 doublings, model-specific) | 0.0626 | 0.944 | 0.0489 | 0.404 | 0.144
in vitro model: cholesterol 0.05 mM, time point: constant (~7 days, model-specific) | 0.12 | 0.731 | -0.14 | -0.149 | –
in vitro model: cholesterol 0.05 mM, time point: terminal (~4-5 doublings, model-specific) | 0.146 | 0.921 | -0.207 | -1.06 | –
in vitro model: cholesterol-high 0.2 mM, time point: constant (~7 days, model-specific) | 0.0978 | 0.905 | -0.175 | 0.567 | –
in vitro model: cholesterol-high 0.2 mM, time point: terminal (~4-5 doublings, model-specific) | 0.104 | 1 | -0.831 | 0.339 | 0.921
in vitro model: dormancy (butyrate + nitrate, low O2), time point: constant (~7 days, model-specific) | 0.142 | 0.891 | -0.209 | 1.03 | –
in vitro model: dormancy (butyrate + nitrate, low O2), time point: terminal (~4-5 doublings, model-specific) | 0.0963 | 0.981 | -0.881 | -0.0848 | -0.19
in vitro model: standard 7H9 glycerol, time point: constant = terminal | 0.0762 | 0.904 | 0.0621 | 0.648 | –
in vitro model: valerate, time point: constant (~7 days, model-specific) | 0.153 | 0.901 | -0.16 | -0.171 | –
in vitro model: valerate, time point: terminal (~4-5 doublings, model-specific) | 0.115 | 0.923 | -0.0362 | -0.419 | 2.13
